Laboratory results taken from patent publication US20230391684A1, “NITROGEN FERTILIZER COMPOSITIONS BASED ON POLYPHOSPHATE CAGED STRUCTURE” (priority 2020, published 2023).

Assays:
[1] = Water leaching assay (2 g, 10 mL water, 8 min): water-soluble and water-insoluble nitrogen/urea; format: physicochemical; conditions: 2 g leached with 10 mL water in 8 min, dried residue
Protocol: Determination of water-insoluble nitrogen: 2 g of the product in powder form, is weighed into a filter paper (Whatman 1) placed in a funnel. It is leached with 10 mL water added dropwise from a burette within a period of 8 min. The wet residue is placed together with the filter paper, in a petridish and dried at 50° C. After drying, the residue is ground and used for analysis of nitrogen.
Determination of water-soluble nitrogen: 2 g of the product in powder form, is weighed into a filter paper (Whatman 1) placed in a funnel. It is leached with 10 mL water added dropwise from a burette within a period of 8 min. The filtrate is placed together with the filter paper, in a petridish and dried at 50° C. After drying, the dried mass is weighed. It is analyzed for N as described above.

[2] = Source text: The fertilizer composition will contain urea with reduced water solubility. […] Preferably no more than 30 to 60 wt. % of the urea is soluble. More preferably no more than 30 to 50 wt. % of urea is soluble.
XRD was of the granulated product which was powdered for recording of XRD.

NC(N)=O [urea]
urea content of residue after leaching with water [1]: no urea was detectable
total N from fertilizer soluble in water [2]: 100 wt. %
